*1 amine or outer side, *2 acyl side, *3 side chain or, on linkers, in order; H or OH if unused. Where a SMILES comes first, the peptide text is derived from it. Side-chain parts run from the residue outwards. [ ]: non-standard residue; d: D form. The star is where a group is joined. C18 diacid = O=C(O)CCCCCCCCCCCCCCCCC(=O)*; γGlu = O=C(O)[C@H](CCC(=O)[*:2])N[*:1]; NMeI = CC[C@H](C)[C@H](NC)C(=O)O; AEEA = NCCOCCOCC(=O)O; Aib = CC(C)(N)C(=O)O
Biological target: T1, CFR1R receptor (Homo sapiens, UniProt P34998)
T1 construct: host or cells: CHO-K1 (clone 2)
T1 sequence (P34998 24-415): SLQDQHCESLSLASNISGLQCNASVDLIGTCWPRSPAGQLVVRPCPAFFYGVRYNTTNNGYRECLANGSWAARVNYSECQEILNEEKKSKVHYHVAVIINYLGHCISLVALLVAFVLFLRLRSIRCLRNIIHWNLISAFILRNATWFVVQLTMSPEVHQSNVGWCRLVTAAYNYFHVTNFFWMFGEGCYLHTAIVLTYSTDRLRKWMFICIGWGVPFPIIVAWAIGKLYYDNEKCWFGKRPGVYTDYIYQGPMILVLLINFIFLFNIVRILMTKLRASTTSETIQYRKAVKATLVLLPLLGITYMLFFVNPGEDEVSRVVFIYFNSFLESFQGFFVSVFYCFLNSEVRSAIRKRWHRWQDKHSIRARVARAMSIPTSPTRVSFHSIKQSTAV
Assay: Activity at anti-target CFR1R receptor, cAMP assay in CRF1R-overexpression CHO-K1 cells
Assay type: cell-based
Settings: 100% = Sauvagine at 100 nM
Experimental: Assessment of activity at anti-target CFR1R receptor is done using the same procedure as the one described for the TeloHEAC cell line. The CRF1R-overexpression CHO-K1 cell line clone 2 was purchased from PerkinElmer. Cells were grown in a 10 cm dish at 37° C./5% CO2 in medium (F12 (Hams)/10% FBS/400 μg/ml G418) to near confluence. At that stage, cells were harvested, resuspended to 10 million/mL in culture medium without G418 and with 10% DMSO. 1 mL vial aliquots were slowly frozen to −80° C. in isopropanol and then transferred in liquid nitrogen for storage. These vials were used to run the experiment following the procedure reported in the previous paragraph, except for the compound used in the control well to define the 100% activation (Sauvagine at 100 nM) and the cell density (final cell density: 4000 cells/well)

Row | SMILES | Emax (% I)
1 | CC[C@H](C)[C@H](NC(C)=O)C(=O)N[C@H](C(=O)N[C@@H](CC(C)C)C(=O)N[C@@H](CO)C(=O)N[C@@H](CC(C)C)C(=O)N[C@@H](CC(=O)O)C(=O)N[C@@H](C(=O)N1CCC[C@H]1C(=O)N[C@H](C(=O)N[C@@H](CCCCN)C(=O)N[C@@H](CC(C)C)C(=O)N[C@@H](CCCCNC(=O)COCCOCCNC(=O)COCCOCCNC(=O)CC[C@H](NC(=O)CC[C@H](NC(=O)CCCCCCCCCCCCCCCCC(=O)O)C(=O)O)C(=O)O)C(=O)N[C@@H](CCC(N)=O)C(=O)NC(C)(C)C(=O)N[C@@H](CC(C)C)C(=O)N[C@@H](CC(C)C)C(=O)N[C@@H](CCCCN)C(=O)N[C@@H](CCC(N)=O)C(=O)N[C@@H](CCC(=O)O)C(=O)N[C@@H](CCCNC(=N)N)C(=O)N[C@@H](CCC(N)=O)C(=O)N[C@@H](CCCCN)C(=O)N[C@@H](CCCCN)C(=O)N[C@@H](CCC(N)=O)C(=O)N[C@@H](CCCNC(=N)N)C(=O)N[C@@H](CCC(=O)O)C(=O)N[C@@H](CCC(N)=O)C(=O)N[C@@H](C)C(=O)N[C@@H](CCC(=O)O)C(=O)N[C@@H](CCCCN)C(=O)N[C@@H](CC(N)=O)C(=O)N[C@H](C(=O)N[C@@H](CCC(N)=O)C(=O)N[C@H](C(=O)N[C@@H](CC(C)C)C(=O)N[C@@H](CCC(=O)O)C(=O)N[C@@H](CCC(N)=O)C(=O)N[C@H](C(N)=O)C(C)C)[C@@H](C)CC)C(C)C)[C@@H](C)CC)C(C)C)C(C)C [compound 27] (Ac-IVLSLD[dV]PIKLK([AEEA-AEEA-γGlu-γGlu-C18 diacid])Q[Aib]LLKQERQKKQREQAEKNVQILEQV-NH2) | 7 % I
2 | CC[C@H](C)[C@H](NC)C(=O)N[C@H](C(=O)N[C@@H](CC(C)C)C(=O)N[C@@H](CO)C(=O)N[C@@H](CC(C)C)C(=O)N[C@@H](CC(=O)O)C(=O)N[C@@H](C(=O)N1CCC[C@H]1C(=O)N[C@H](C(=O)N[C@@H](CCCCN)C(=O)N[C@@H](CC(C)C)C(=O)N[C@@H](CCCCNC(=O)COCCOCCNC(=O)COCCOCCNC(=O)CC[C@H](NC(=O)CC[C@H](NC(=O)CCCCCCCCCCCCCCCCC(=O)O)C(=O)O)C(=O)O)C(=O)N[C@@H](CCC(N)=O)C(=O)NC(C)(C)C(=O)N[C@@H](CC(C)C)C(=O)N[C@@H](CC(C)C)C(=O)N[C@@H](CCCCN)C(=O)N[C@@H](CCC(N)=O)C(=O)N[C@@H](CCC(=O)O)C(=O)N[C@@H](CCCNC(=N)N)C(=O)N[C@@H](CCC(N)=O)C(=O)N[C@@H](CCCCN)C(=O)N[C@@H](CCCCN)C(=O)N[C@@H](CCC(N)=O)C(=O)N[C@@H](CCCNC(=N)N)C(=O)N[C@@H](CCC(=O)O)C(=O)N[C@@H](CCC(N)=O)C(=O)N[C@@H](C)C(=O)N[C@@H](CCC(=O)O)C(=O)N[C@@H](CCCCN)C(=O)N[C@@H](CC(N)=O)C(=O)N[C@H](C(=O)N[C@@H](CCC(N)=O)C(=O)N[C@H](C(=O)N[C@@H](CC(C)C)C(=O)N[C@@H](CCC(=O)O)C(=O)N[C@@H](CCC(N)=O)C(=O)N[C@H](C(N)=O)C(C)C)[C@@H](C)CC)C(C)C)[C@@H](C)CC)C(C)C)C(C)C [compound 28] (H-[NMeI]VLSLD[dV]PIKLK([AEEA-AEEA-γGlu-γGlu-C18 diacid])Q[Aib]LLKQERQKKQREQAEKNVQILEQV-NH2) | 6 % I

Source: patent US20260001928A1 (CORTERIA PHARMACEUTICALS, priority 2022, published 2026)
